In patent US9133201B2, “Inhibitors of Bruton's tyrosine kinase” (Pharmacyclics, Inc., priority 2006, dated 2015):

Experiments:
[1] = molecular target: Btk (Homo sapiens (Human), UniProt Q06187); experiment: Btk acellular kinase assay (TR-FRET)
[2] = tested on: DHL-6 cells; experiment: Growth of DHL-6 cells (Alamar Blue); format: cell-based; details: 24 h or 48 h treatment

Btk, sequence (Q06187 whole entry): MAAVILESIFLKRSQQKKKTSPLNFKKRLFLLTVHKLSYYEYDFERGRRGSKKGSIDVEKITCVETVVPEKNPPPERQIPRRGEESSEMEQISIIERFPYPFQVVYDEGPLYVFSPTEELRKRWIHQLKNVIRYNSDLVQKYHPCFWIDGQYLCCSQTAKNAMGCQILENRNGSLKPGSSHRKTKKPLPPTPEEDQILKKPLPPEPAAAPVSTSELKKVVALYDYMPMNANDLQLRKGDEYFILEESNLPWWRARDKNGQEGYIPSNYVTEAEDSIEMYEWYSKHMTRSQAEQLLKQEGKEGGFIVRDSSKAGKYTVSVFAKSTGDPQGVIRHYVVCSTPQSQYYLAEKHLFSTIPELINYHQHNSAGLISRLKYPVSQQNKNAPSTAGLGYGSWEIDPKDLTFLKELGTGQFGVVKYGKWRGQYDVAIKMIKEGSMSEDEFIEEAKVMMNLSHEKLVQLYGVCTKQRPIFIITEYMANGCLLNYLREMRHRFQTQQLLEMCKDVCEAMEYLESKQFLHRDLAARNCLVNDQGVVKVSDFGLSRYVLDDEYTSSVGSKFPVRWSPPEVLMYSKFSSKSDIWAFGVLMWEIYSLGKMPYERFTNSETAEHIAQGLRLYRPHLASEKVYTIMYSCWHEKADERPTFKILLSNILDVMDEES

SMILES | fold less potent than compound 4 ([1]; Btk potency) | growth of DHL-6 cells [2] | IC50 ([1]; read-out: Btk IC50, acellular TR-FRET kinase assay, [ATP]=Km)
C/C=C/C(=O)N1CCCC(n2nc(-c3ccc(Oc4ccccc4)cc3)c3c(N)ncnc32)C1 (stereo not drawn) [Compound 5, (E)-1-(3-(4-amino-3-(4-phenoxyphenyl)-1H-pyrazolo[3,4-d]pyrimidin-1-yl)piperidin-1-yl)but-2-en-1-one] | 28 fold | – | –
CN(C)C/C=C/C(=O)N1CCC[C@@H](n2nc(-c3ccc(Oc4ccccc4)cc3)c3c(N)ncnc32)C1 [Compound 15, (E)-1-(3-(4-amino-3-(4-phenoxyphenyl)-1H-pyrazolo[3,4-d]pyrimidin-1-yl)piperidin-1-yl)-4-(dimethylamino)but-2-en-1-one] | – | inhibit growth | 2.5 nM
